One series relates to cell membranes. Briefly: Penetration of cell membranes to afford fluorescent cells. The following applies: affords fluorescent cells. The series is classed as cell-based.
Series [1] in a line: Fluorescence of the compound. The series is classed as physicochemical. An excerpt: Compound 58 can be used in enzyme experiments with FPTase and Ras in order to obtain standard Ras proteins labeled with the fluorescent isoprenoid analog. Similarly compound 62 can be used with GGPTase I or II and proteins such as Rho B to obtain other protein standards. Protein standards obtained from in vitro experiments can then be used to analyze cell lysates for the formation of analogous proteins through in vivo experiments. Compound 58 ^1H NMR(D2O) δ7.6 (1H), 7.2 (1H), 6.4 (2H), 5.4 (1H), 5.2 (1H), 4.4 (2H), 3.6 (3H), 3.4 (2H), 2.0 (2H), 1.8 (2H), 1.6 (3H), 1.4 (3H); and ^31P NMR −6.9 (d, 1P) −9.75 (d, 1P).

Series [2] can be described thus: Metabolic stability compared to previously prepared analogs. The series is classed as in vitro ADME. The following applies: compared to other previously prepared analogs; attributed to amine linkage binding anthranilic acid to the terpenoid chain. From the text: As exemplified in the reaction scheme below, Fischer esterification of commercial anthranilic acid provides the corresponding amino ester 54. Reductive amination of amine 54 with aldehyde 55, derived from SeO2 oxidation of geranyl acetate and subsequent MnO2 oxidation, gave the desired amine 56 and subsequent cleavage of the acetate gave the farnesol analog 57.

Molecules are shown by their SMILES.

The results in this text go back to patent US6727234B2, “Isoprenoid analog compounds and methods of making and use thereof” (University of Iowa Research Foundation, priority 2001, dated 2004).

In the case of `COC(=O)c1ccccc1NC/C(C)=C/CC/C(C)=C/CO` [Compound 57], in the series with cell membranes, the “penetration of cell membranes” value was “readily penetrates cell membranes”. Further, in series [1], the fluorescence result is reported as “highly fluorescent”. Also, the metabolic stability entry in series [2] was “much greater degree of metabolic stability”.
